Literature values, collected in patent publication US20140370149A1, “METHODS FOR USING REBAUDIOSIDE C AS A FLAVOR ENHANCER” (International Flavors & Fragrances Inc., priority 2011, published 2014).

Conditions: sweetness relative to sucrose

## C=C1C[C@@]23CC[C@H]4[C@@](C)(CCC[C@@]4(C)C(=O)O[C@@H]4O[C@H](CO)[C@@H](O)[C@H](O)[C@H]4O)[C@@H]2CC[C@]1(O[C@@H]1O[C@H](CO)[C@@H](O)[C@H](O)[C@H]1O[C@@H]1O[C@@H](C)[C@H](O)[C@@H](O)[C@H]1O)C3 [dulcoside A]
  times sweeter than sucrose: 30 times
